Measured values published in PMC1190152, “Archazolid and apicularen: Novel specific V-ATPase inhibitors” (BMC Biochemistry, 2005).
Like-named read-outs stand apart in the source and are kept apart here.

Experiments:
3Y1 = assay: Growth inhibition of 3Y1 cells (MTT assay); format: cell-based, rat; conditions: Rattus norvegicus, 3Y1, 120 h, read-out: IC50 growth inhibition
Protocol: (§1) Cell lines were obtained from the German Collection of Microorganisms and Cell Cultures (DSMZ). Cell lines 3Y1 and M1 (embryonal fibroblasts from 129/Ola × C57BL/6 mice, [30]) were a generous gift from Dr. S. Miyamoto, Fukoka, Japan, and Dr. P. F. Mühlradt, Braunschweig, Germany. All cell lines were cultivated under conditions recommended by the supplier. Growth inhibition was measured in microtiterplates. Aliquots of 120 μl of the suspended cells (50,000/ml) were given to 60 μl of a serial dilution of the inhibitor. After 5 days, growth was determined using the MTT assay.

KB-V1 = assay: Growth inhibition of multidrug-resistant KB-V1 cells (MTT assay), with or without verapamil; format: cell-based; conditions: 120 h; KB-V1, mdr human cervix carcinoma; without verapamil; MTT after 5 days
Protocol: The novel antibiotics archazolids and apicularens (Fig. 1) were checked for their impact on the cell growth of a variety of mammalian cell lines from different tissues (Tab. 1). […] Apicularen B was the only exception, with an average IC50 value two orders of magnitude higher. Growth inhibition of the multidrug-resistant cell line KB-V1 was also measured in the presence of verapamil. […] The data in Tab 1. show, that unlike the archazolids, the apicularens are poor substrates of Pgp. To visualize the impact of the antibiotics, PtK2 (potoroo kidney) cells were incubated with the inhibitors and stained for intact acidic lysosomes (Fig. 2). […] The same observation was made with KB-3-1 cells (data not shown). […] Unlike the cell lines listed in Tab. 1, the growth of PtK2 cells was not completely stopped. The same holds true for A-498 cells (human kidney carcinoma). Both cell lines grow epithelial-like. There was obviously a differential reaction of cell lines to V-ATPase inhibitors. For A-431 cells (human epidermoid carcinoma) a dependence on the expression of the EGF receptor was shown.
as §1

A-594 = assay: Growth inhibition of A-594 cells (MTT assay); format: cell-based, human; conditions: Homo sapiens, 120 h, read-out: IC50 growth inhibition
Protocol: as §1

M1 = assay: Growth inhibition of M1 cells (MTT assay); format: cell-based, mouse; conditions: Mus musculus, Fibroblast, 120 h, read-out: IC50 growth inhibition
Protocol: as §1

[1] = target: T1, V-ATPase holoenzyme from the midgut of the tobacco hornworm (Manduca sexta, UniProt P31403); assay: Inhibition of purified V-ATPase holoenzyme activity; format: biochemical
T1 construct: purified V-ATPase holoenzyme from the midgut of the tobacco hornworm; from tissue; host or cells: midgut of fifth instar Manduca sexta larvae
T1 sequence (P31403 whole entry): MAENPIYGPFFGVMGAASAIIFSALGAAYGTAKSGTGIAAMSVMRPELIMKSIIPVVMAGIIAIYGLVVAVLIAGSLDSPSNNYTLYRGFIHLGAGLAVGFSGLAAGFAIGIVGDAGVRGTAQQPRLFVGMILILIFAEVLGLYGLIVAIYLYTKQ
Protocol: (§2) The V-ATPase holoenzyme was purified as published elsewhere. Preparation of highly purified membranes containing Na^+/K^+-ATPase from pig kidney followed the protocol of Jørgensen with the three main steps of differential centrifugation, incubation with SDS in the presence of ATP and sucrose density gradient centrifugation in a fixed angle rotor, and led to a specific enzyme activity which was in the same range as that reported by the authors. The resulting sample was stored frozen at -20°C. To prepare crude membrane extracts, the hearts of three mice were washed three times with an ice-cold buffer of pH 8.1 consisting of 0.25 M sucrose, 5 mM Tris-HCl, 5 mM EDTA, and 10 mM Pefabloc SC (Biomol), homogenized in 5 ml of this buffer and centrifuged at 4°C for 25 min at 233,000 × gmax in a fixed angle rotor. The resulting pellet was resuspended in 5 ml of a buffer of pH 7.5, consisting of 5 mM Tris-MOPS (3-morpholinopropanesulfonic acid), 10 mM NaCl, 10 mM Pefabloc SC, 9.6 mM 2-mercaptoethanol, 0.53 mM EGTA and 0.1 % Triton X-100. After an aliquot for protein determination had been taken, 10% bovine serum albumin (final concentration) was added to the suspension which was then stored on ice until the activity assays were run. Beef heart mitochondria were isolated by differential centrifugation, following the protocol of Smith by using a blender to homogenize the heart mince. The initial homogenization buffer consisted of 250 mM saccharose, 10 mM KH2PO4, 10 mM Tris, 2 mM EGTA, 2 mM MgCl2, pH 7.4, and further isolation procedures were carried out in the same medium without EGTA [24]. Submitochondrial particles were obtained by ultrasonic treatment of the mitochondria.
(§3) Standard V-ATPase assays with a final volume of 160 μl and a pH of 8.1 consisted of 3–4 μg of protein, 50 mM Tris-MOPS, 3 mM 2-mercaptoethanol, 1 mM MgCl2, 20 mM KCl, 0.003% C12E10, 20 mM NaCl, and 3 mM Tris-HCl. After 5 min of pre-incubation at 30°C with or without inhibitors, 1 mM Tris-ATP was added and after incubation for 2 min the reaction was stopped by placing the tube in liquid nitrogen. Assays using Na^+/K^+-ATPase were performed in 160 μl at pH 7.5 and contained 0.5 μg of protein, 50 mM Tris-MOPS, 5 mM imidazole, 0.2 mM EDTA, 4 mM MgCl2, 20 mM KCl and 100 mM NaCl. After 5 min of pre-incubation at 37°C with or without inhibitors, 3 mM Tris-ATP was added and after 1 min of incubation the reaction was stopped by placing the tube in liquid nitrogen. […] After 5 min of pre-incubation at 30°C with or without inhibitors, 1 mM Tris-ATP was added and after an incubation time of 10 min the reaction was stopped by placing the tubes in liquid nitrogen. ATPase assays with submitochondrial particles from beef heart were performed in a final volume of 1 ml and a pH of 8.0. The samples contained 9–12 μg protein, 50 mM Tris, 50 mM KCl and 2.5 mM MgCl2. After 5 min of preincubation with or without inhibitors, 5 mM ATP was added, and after an additional incubation time of 15 min the reaction was stopped by the addition of 0.4 ml of 20 % TCA.
(§4) Inorganic phosphate produced in the assays of V-ATPase, Na^+/K^+-ATPase and mouse heart F-ATPase was measured according the protocol of Wieczorek et al., while the determination of inorganic phosphate produced in the assays of beef heart F-ATPase followed the method of Fiske and Subarrow using ascorbic acid as reducing agent.
Fifth instar larvae of M. sexta (Lepidoptera, Sphingidae), weighing 6–8 g, were reared under long day conditions (16 h of light) at 27°C using a synthetic diet modified according to Bell et al.

L-929 = system: L-929; parameters: method as in PMID 12931860; conditions: L-929, murine connective tissue; ref [17]; read-out: IC50 growth inhibition; cited from earlier work
bacterial growth = conditions: ref [11],[15],[17]; cited from earlier work
F-ATPase [2] = target: T2, F-ATPase (Mus musculus, UniProt P56480); assay: Inhibition of F-ATPase activity in crude membranes from mouse heart; format: biochemical
T2 construct: we prepared mitochondria rich crude membranes from mouse heart; from tissue; host or cells: mouse heart, crude membrane extract
Protocol: as §2, §3, §4

F-ATPase [3] = target: T3, F-ATPase (Bos taurus, UniProt P00829); assay: Inhibition of F-ATPase activity in submitochondrial particles from beef heart; format: biochemical
T3 construct: Submitochondrial particles were obtained by ultrasonic treatment of the mitochondria; from tissue; host or cells: beef heart mitochondria, submitochondrial particles
Protocol: as §2, §3, §4

[4] = target: T1, V-ATPase holoenzyme from the midgut of the tobacco hornworm; parameters: method as in PMID 12186879; conditions: ref [10], cited from earlier work
Vo subunit c = target: T4, Vo subunit c (Manduca sexta, UniProt P31403); parameters: method as in PMID 12186879; conditions: previous study; ref [10]; cited from earlier work
T4 construct: from tissue; host or cells: midgut of Manduca sexta larvae (purified V-ATPase)
T4 sequence (P31403 whole entry): as above

Na+/K+-ATPase = target: T5, Na+/K+-ATPase (Sus scrofa, UniProt P05024); assay: Inhibition of Na+/K+-ATPase from pig kidney; format: biochemical
T5 construct: highly purified, Na^+/K^+-ATPase containing plasma membranes from pig kidney; from tissue; host or cells: pig kidney, purified plasma membranes
Protocol: as §2, §3, §4

[5] = mouse heart crude membranes, specific F-ATPase inhibitors
[6] = beef heart submitochondrial particles, specific F-ATPase inhibitors
[7] = mouse heart crude membranes, inhibitor 1 μM
[8] = beef heart submitochondrial particles, inhibitor 1 μM
[9] = read-out: ATPase activity reduced to (remaining activity)
[10] = experiment 1, inhibitor 0.1 mM, control 19.0
[11] = experiment 1, inhibitor 1 mM, control 19.0
[12] = experiment 2, inhibitor 1 mM, control 15.9

For `CNC(=O)O[C@@H](CC(C)C)c1nc([C@H]2OC(=O)/C=C/C/C(C)=C/[C@@H](O)[C@@H](C)\C=C(C)/C=C(C)\C=C\[C@@H](O)[C@H](C)[C@H](OC)/C(C)=C/C=C/[C@@H]2C)cs1` [archazolid B], the IC50 (3Y1) was 1.1 nM, the IC50 (KB-V1) was 35 nM and the IC50 (A-594) was 0.69 nM. For the same molecule, the IC50 (M1) was 0.35 nM, the IC50 [1] was ~20 nM and the “IC50 per mg of protein, purified V-ATPase” value ([1]; equivalent of the half-maximal concentration) was “ca. 0.8 nmol per mg of protein”. The IC50 (L-929) was 1.1 nM and the “inhibition of bacterial growth” value (bacterial growth) was “failed to inhibit”.
For `[N-]=[N+]=[N-]` [azide, reference compound], the “ATPase activity reduced to (remaining activity)” value (F-ATPase [2]; [5]) was “around 25%” and the “ATPase activity reduced to (remaining activity)” value (F-ATPase [3]; [6]) was “around 25%”.
In the case of `CO/C1=C\C(C)=C\[C@@H](C)[C@@H](O)[C@@H](C)C/C(C)=C/C=C/[C@H](OC)[C@@H]([C@@H](C)[C@@H](O)[C@H](C)[C@@]2(O)C[C@@H](OC(=O)/C=C/C(=O)NC3=C(O)CCC3=O)[C@H](C)[C@@H](C(C)C)O2)OC1=O` [bafilomycin B1], the “IC50 per mg of protein, purified V-ATPase” value [4] is listed as “ca. 0.5 nmol per mg of protein”, the IC50 ([4]; read-out: half-maximal inhibition concentration of purified V-ATPase) is listed as ~10 nM and the “labelling of / binding to subunit c” value (Vo subunit c) is listed as “prevented”.
For `CO/C1=C\C(C)=C\[C@@H](C)[C@@H](O)[C@@H](C)C/C(C)=C/C=C/[C@H](OC)[C@@H]([C@@H](C)[C@@H](O)[C@H](C)[C@@]2(O)C[C@@H](O)[C@H](C)[C@@H](C(C)C)O2)OC1=O` [bafilomycin, reference compound], the “ATPase activity reduced to (remaining activity)” value (F-ATPase [2]; [7]) was “approximately 80%” and the “ATPase activity reduced to (remaining activity)” value (F-ATPase [3]; [8]) was “approximately 80%”.
`C/C=C/[C@H]1O[C@@](O)([C@@H](C)[C@H](O)[C@H](C)[C@H]2OC(=O)/C(OC)=C/C(C)=C/[C@@H](C)[C@@H](O)[C@@H](CC)[C@@H](O)[C@H](C)C/C(C)=C/C=C/[C@@H]2OC)C[C@@H](O)[C@@H]1C` [concanamycin, reference compound] showed a remaining activity at 1 µM (F-ATPase [2]; [9]) of ~80% and a remaining activity at 1 µM (F-ATPase [3]; [9]) of ~80%.
For `CC[C@H]1/C=C/C=C/C[C@@H](C)[C@H](O)[C@@](C)(O)C(=O)[C@@H](C)[C@H](O)[C@@H](C)C(=O)[C@@H](C)[C@H](O)[C@@H](C)/C=C/C(=O)O[C@@H]2[C@H](C)[C@H](CC1)O[C@]1(CC[C@H](C)[C@H](C[C@@H](C)O)O1)[C@H]2C` [oligomycin, reference compound], the “ATPase activity reduced to (remaining activity)” value (F-ATPase [2]; [5]) was “around 25%” and the “ATPase activity reduced to (remaining activity)” value (F-ATPase [3]; [6]) was “around 25%”.
In the case of `C[C@@H]1O[C@@H](O[C@H]2C[C@@H](O)[C@]3(CO)[C@H]4[C@H](O)C[C@]5(C)[C@@H](C6=CC(=O)OC6)CC[C@]5(O)[C@@H]4CC[C@]3(O)C2)[C@H](O)[C@H](O)[C@H]1O` [ouabain], the “specific activity of Na+/K+-ATPase” value (Na+/K+-ATPase; [10]) is reported as 5.2 µmol/mg/min, the “specific activity of Na+/K+-ATPase” value (Na+/K+-ATPase; [11]) is reported as 0 µmol/mg/min and the “specific activity of Na+/K+-ATPase” value (Na+/K+-ATPase; [12]) is reported as 0 µmol/mg/min. For the same molecule, the “effect on Na+/K+-ATPase activity” value (Na+/K+-ATPase; inhibitor 1 mM) was “completely inhibited”.
With `[O]=[V]([O-])([O-])[O-]` [vanadate] the “specific activity of Na+/K+-ATPase” value (Na+/K+-ATPase; [10]) was 2.0 µmol/mg/min, the “specific activity of Na+/K+-ATPase” value (Na+/K+-ATPase; [11]) was 0 µmol/mg/min and the “specific activity of Na+/K+-ATPase” value (Na+/K+-ATPase; [12]) was 0 µmol/mg/min. For the same molecule, the “effect on Na+/K+-ATPase activity” value (Na+/K+-ATPase; inhibitor 1 mM) was “completely inhibited”.
In the case of apicularen, the “ATPase activity reduced to (remaining activity)” value (F-ATPase [2]; [7]) is reported as “approximately 80%”, the “effect of increased inhibitor concentration on F-ATPase activity” value (F-ATPase [2]; mouse heart crude membranes, inhibitor 10 μM) is reported as “no substantial effect” and the “ATPase activity reduced to (remaining activity)” value (F-ATPase [3]; [8]) is reported as “approximately 80%”. For the same molecule, the “effect of increased inhibitor concentration on F-ATPase activity” value (F-ATPase [3]; beef heart submitochondrial particles, inhibitor 10 μM) was “no substantial effect”.
